Like-named read-outs stand apart in the source and are kept apart here.
Experiments:
SF3b complexes = target: T1, SF3b complexes (Homo sapiens, UniProt O75533+Q7RTV0); experiment: Scintillation proximity assay (SPA) with [3H]-labelled pladienolide probe; format: binding; conditions: SF3B1 (WT); geometric mean; read-out: SPA-ATS GMean IC50 (nM) SF3B1 (WT)
T1 construct: endogenous in cells; host or cells: Nuclear extracts; A HeLa S3 extract preparation is described for the in vitro splicing assay
Description: Scintillation Proximity Assay (SPA) with [^3-H]-Labelled Pladienolide Probe
(§1) Batch immobilization of anti-SF3B1 antibody (MBL) to anti-mouse PVT SPA scintillation beads (PerkinElmer) was prepared as follows: for every 2.5 mg of nuclear extracts, 5 μg anti-SF3B1 antibody and 1.5 mg of beads were mixed in 150 μl PBS. The antibody-bead mixture was incubated for 30 min at RT and centrifuged at 18,000 g for 5 min. 150 μl PBS was used to resuspend every 1.5 mg antibody-bead mixture. The beads were suspended and added to the prepared nuclear extracts. The slurry was incubated for 2 h at 4° C. with gentle mixing. The beads were then collected by centrifuging at 18,000 g for 5 min, and washed twice with PBS+0.1% Triton X-100. After a final centrifugation step, every 1.5 mg of beads was suspended with 150 μl of PBS. The SF3b complexes were tested for [^3H]-labelled pladienolide probe binding ([^3H]—PB), synthesized as previously described (Kotake et al., 2007). 100 μl binding reactions were prepared with 50 μl bead slurry and by adding varying concentrations of PB or PB—OH, and after 30 min pre-incubation, 2.5 nM [^3H]—PB was added. The mixture was incubated for 30 min, and luminescence signals were read using a MicroBeta2 Plate Counter (PerkinElmer). Prism 6 (Graphpad) was used for non-linear regression curve fitting of the data. • a. • b. HeLa nuclear extract preparation (for in vitro splicing modulation assay below) • c. HeLa S3 cell pellets were resuspended in hypotonic buffer (10 mM HEPES pH 7.9, 1.5 mM MgCl2, 10 mM KCl, 0.2 mM PMSF, and 0.5 mM DTT) and the suspension was brought up to a total of 5 packed cell volume (PCV). After centrifugation, the supernatant was discarded, and the cells were brought up to 3 PCV with hypotonic buffer and incubated on ice for 10 minutes. Cells were lysed using a dounce homogenizer and then centrifuged. The supernatant was discarded, and the pellet was resuspended with ½ packed nuclear volume (PNV) of low salt buffer (20 mM HEPES pH 7.9, 1.5 mM MgCl2, 20 mM KCl, 0.2 mM EDTA, 25% glycerol, 0.2 mM PMSF, 0.5 mM DTT), followed by ½ PNV of high salt buffer (same as low salt buffer except 1.4 M KCl was used). The nuclei were gently mixed for 30 minutes before centrifuging. The supernatant (nuclear extract) was then dialyzed into storage buffer (20 mM HEPES pH 7.9, 100 mM KCl, 0.2 mM EDTA, 20% glycerol, 0.2 mM PMSF, 0.5 mM DTT). Protein concentration was determined using NanoDrop 8000 UV-Vis spectrophotometer (ThermoFisher Scientific). • d. In vitro splicing assay (IVS)

[1] = system: Ad2 variant pre-mRNAs spliced in HeLa S3 nuclear extracts; experiment: In vitro splicing assay (IVS), RT-qPCR of spliced product; format: biochemical; conditions: for IC50: geometric mean; for Ratio Ad2.1/2.2: ratio of IVS IC50 Ad2.1 to Ad2.2
Description: as §1
All Ad2-derived (Pellizzoni et al., 1998) sequences were cloned into pcDNA3.1(+) vector (Promega) using 5′ EcoRI and 3′ XbaI restriction sites. The plasmids were linearized using XbaI and used as DNA templates in the in vitro transcription reactions. The FtzΔi intron-less plasmid (Luo and Reed, 1999) was linearized using EcoRI. All RNAs were in vitro transcribed and then purified using MEGAScript T7 (Invitrogen) and MegaClear (Invitrogen) kits, respectively. For splicing reactions using Ad2 variant pre-mRNAs, […] reactions were prepared using 8 μg nuclear extracts prepared from HeLa S3, 2 ng pre-mRNA, 0.2 ng FTZΔi, and varying concentrations of exemplary payloads or DMSO. After a 15 minute pre-incubation at 30° C., 1 μL splicing activation buffer (0.5 mM ATP, 20 mM creatine phosphate, 1.6 mM MgCl2) was added, and the reactions were incubated for 90 minutes at 30° C. The reactions were then quenched with 13 μL it DMSO, and 25 nL was used for RT-qPCR. RT-qPCR reactions were prepared using TaqMan RNA-to-CT 1-step kit (Life Technologies), RNA from splicing reactions, Ad2 (forward: […]; reverse: […]; probe: […]) and Ftz (forward: […]; reverse: […]; probe: […]) mRNA primer-probe sets. Prism 6 (Graphpad) was used for non-linear regression curve fitting of the formed spliced product and normalized to the control (DMSO) sample.

[2] = system: NCI-H1568 cells (high MCL1); experiment: Cell proliferation and viability, CellTiter-Glo, 72 hours; format: cell-based; conditions: for GI50: geometric mean
Description: Cell lines were maintained in RPMI-1640 (ATCC 30-2001) supplemented with 10% fetal bovine serum (FBS). The Panc lines were supplemented in addition with insulin and FBS up to 15% total.
Compounds for assay were prepared as stocks in 90% dimethyl sulfoxide (DMSO), assessed for purity by LC/MS, and serially diluted in DMSO using a low-volume liquid handler (VIAFLO ASSIST and VIAFLO II electronic 16-channel pipette, 0.5-12.5 μL) in an 11-point half-log serial dilution to create a master dose response (MDR) source used for all tests.
Transfer of compounds from the MDR source plate to cell assay-ready plates were accomplished directly by low-energy acoustic transfer (ATS100, EDC Biosystems). After transfer of compounds to the assay plate, the dose-response range experienced by cells was typically 10 μM-100 pM (5 logs), and final DMSO concentration in the assay was 0.1%, uniformly. Each assay plate was self-anchored containing vehicle/DMSO negative controls, medium-only/positive controls, and cidal control dose-responses of bortezomib and staurosporine. Assay-ready plates were heat-sealed and stored at −20° C. until used, no longer than one month.
A DMSO-matched time zero (T0) plate was read and then all other plates were incubated at 37° C. with 5% CO2 and 95% relative humidity until the end of assay. Cell proliferation and viability assays were performed 72 hours post-treatment depending on cell growth where at least one doubling would have occurred.
Assessment of viability and proliferation was by measurement of cell ATP content using CellTiter-Glo® Luminescent Cell Viability Assay reagent (Promega) according to the manufacturer's instructions (CellTiter-Glo® Luminescent Cell Viability Assay Technical Bulletin Instructions for Use of Product(s) G7570, G7571, G7572, G7573 Literature #TB288, Revised March 2015), using a microtiter plate reader (Envision, PE).
Cell proliferation was evaluated using the time zero (T0) signal as the positive control and the within-plate vehicle wells (DMSO) as the negative control. Data was converted to percent inhibition and falls into the range from −100% to 100% of growth where −100% equals a cidal response and 100% equals uninhibited or maximal growth. Cell growth at or near 0% is considered a static response.

[3] = Ad2.1 pre-mRNA substrate, read-out: qPCR-IVS-ATS GMean IC50 (nM) Ad2.1
[4] = Ad2.2 pre-mRNA substrate, read-out: qPCR-IVS-ATS GMean IC50 (nM) Ad2.2
[5] = NCI-H1568, read-out: CTGlo-ATS GMean GI50 (nM) 72 h NCIH1568.1, NCIH1568.1 cells, 72 h
[6] = NCIH1568.1 cells, 72 h, −100% cidal, 0% static, 100% maximal growth
[7] = NCI-H1568, 72 h, read-out: CTGlo-ATS GMean GI50 (nM) 72 h NCIH1568.1, NCIH1568.1 cells, 72 h
[8] = 72 h, NCIH1568.1, -100% = cidal, 0% = static, 100% = uninhibited growth

SMILES	IC50 (SF3b complexes) [nM]	IC50 [1, 3] [nM]	IC50 [1, 4] [nM]	GI50 [2, 5] [nM]	CTGlo-ATS Mean MinResponse % 72 h NCIH1568.1 [2, 6] [%]	GI50 [2, 7] [nM]	Ratio Ad2.1/2.2 [1]	CTGlo-ATS Mean MinResponse % 72 h NCIH1568.1 [2, 8] [%]	GI50 ([2]; NCI-H1568, 72 h, read-out: CTGlo-ATS GMean GI50 (nM) 72 h NCIH1568.1, 72 h, NCIH1568.1) [nM]	GI50 ([2]; NCI-H1568, read-out: CTGlo-ATS GMean GI50 (nM) 72 h NCIH1568.1, 72 h, NCIH1568.1) [nM]
C/C(=C\c1cc(F)cc(N(C(C)C)C2CCN(S(C)(=O)=O)CC2)c1)[C@H]1OC(=O)C[C@H](O)CC[C@H](C)[C@@H](OC(=O)N2CCN(C)CC2)/C=C/[C@@H]1C [Compound 176]	38.5	49.7	31.2	19	−88.183	–	–	–	–	–
CC(=O)N1CCC(CN(C)c2cc(F)cc(/C=C(\C)[C@H]3OC(=O)C[C@H](O)CC[C@H](C)[C@@H](OC(=O)N4CCN(C)CC4)/C=C/[C@@H]3C)c2)CC1 [Compound 186]	12.6	41.8	17.4	–	−70.969	14.5	–	–	–	–
C/C(=C\c1cc(F)cc(N(C)C2CCN(C(=O)c3ccccc3)CC2)c1)[C@H]1OC(=O)C[C@H](O)CC[C@H](C)[C@@H](OC(=O)N2CCN(C)CC2)/C=C/[C@@H]1C [Compound 180]	42.3	29.9	24.6	14.4	−86.471	–	–	–	–	–
C/C(=C\c1cc(F)cc(N2CCN(C(=O)Cn3cccn3)CC2)c1)[C@H]1OC(=O)C[C@H](O)CC[C@H](C)[C@@H](OC(=O)NCc2ccncn2)/C=C/[C@@H]1C [Compound 222, [(2S,3S,4E,6R,7S,10R)-2-[(E)-1-[3-fluoro-5-[4-(2-pyrazol-1-ylacetyl)piperazin-1-yl]phenyl]prop-1-en-2-yl]-10-hydroxy-3,7-dimethyl-12-oxo-1-oxacyclododec-4-en-6-yl] N-(pyrimidin-4-ylmethyl)carbamate]	23.6	116	53.2	–	–	–	2.179	−58.410	69.4	–
C/C(=C\c1cc(F)cc(N2CCN(C(=O)Cn3cccn3)CC2)c1)[C@H]1OC(=O)C[C@H](O)CC[C@H](C)[C@@H](OC(=O)N2CCN(C)C(C)(C)C2)/C=C/[C@@H]1C [Compound 232, [(2S,3S,4E,6R,7S,10R)-2-[(E)-1-[3-fluoro-5-[4-(2-pyrazol-1-ylacetyl)piperazin-1-yl]phenyl]prop-1-en-2-yl]-10-hydroxy-3,7-dimethyl-12-oxo-1-oxacyclododec-4-en-6-yl] 3,3,4-trimethylpiperazine-1-carboxylate]	5.01	15.3	9.5	–	–	–	1.613	−78.974	–	4.67
C/C(=C\c1cc(F)cc(N2CCN(CCCO)CC2)c1)[C@H]1OC(=O)C[C@H](O)CC[C@H](C)[C@@H](OC(=O)N2CCN(C)CC2)/C=C/[C@@H]1C [Compound 136]	8.11	8.64	14.5	–	−90.722	7.17	–	–	–	–
C/C(=C\c1cc(F)c2nnn(C3CCS(=O)(=O)CC3)c2c1)[C@H]1OC(=O)C[C@H](O)CC[C@H](C)[C@@H](OC(=O)N2CCN(C)CC2)/C=C/[C@@H]1C [Compound 158]	13.9	18.9	18.2	6.57	−87.167	–	–	–	–	–
COc1ccc(Cn2nnc3c(F)cc(/C=C(\C)[C@H]4OC(=O)C[C@H](O)CC[C@H](C)[C@@H](OC(=O)N5CCN(C)CC5)/C=C/[C@@H]4C)cc32)cc1 [Compound 166]	23.8	1510	48.3	17.6	−66.370	–	–	–	–	–
C/C(=C\c1cc(F)c2nnn(Cc3ccc(Cl)cc3)c2c1)[C@H]1OC(=O)C[C@H](O)CC[C@H](C)[C@@H](OC(=O)N2CCN(C)CC2)/C=C/[C@@H]1C [Compound 145]	69.4	688	38.1	25	−66.236	–	–	–	–	–
